# Source: patent publication US20250214978A1, “AT2R AGONIST” (WUHAN HUMANWELL INNOVATIVE DRUG RESEARCH AND DEVELOPMENT …, priority 2022, published 2025)
# Like-named read-outs stand apart in the source and are kept apart here.
# Legend:
# Type in all cases: in vitro ADME
# CYP2C8 = CYP2C8 (Homo sapiens (Human), UniProt P10632); test: CYP inhibition assay in mixed human liver microsomes; settings: mixed (pooled) human liver microsomes, read-out: Inhibition rate % CYP2C8
# Method: The inhibitory effects of the compounds on seven enzymes, i.e., CYP1A2, CYP2C9, CYP2C19, CYP2D6, CYP3A4 (midazolam), CYP2B6, and CYP2C8, were evaluated at a concentration of 10 μM. Mixed human liver microsomes, which were previously stored in a −80° C. refrigerator before use, were taken out and thawed in a water bath at 37° C. before use, and placed on ice for further operation. 100 μL of microsome working solution was taken, and added with 2 μL of test product or positive inhibitor working solution. 2 μL of solvent was added to the solvent control. The mixture was pre-incubated in a water bath at 37° C. for 10 minutes. After preincubation, 98 μL of NADPH regeneration solution was added to all samples to initiate the reaction. Then, the samples were put back into the water bath and incubated for a period of time. The reaction was quenched with 200 μL of stop solution. The plate was centrifuged at 3,220 g for 10 minutes, 100 μL of supernatant was transferred, and 100 μL of water was added and mixed well to the assay plate for LC/MS/MS analysis.
# [1] = Free plasma protein binding (PPB) assay, equilibrium dialysis; settings: dialysis 6 hours at 37° C.
# Method: The dried dialysis membrane was soaked in ultrapure water for 1 hour, then soaked in 20% ethanol for 20 minutes, and then rinsed with ultrapure water for 2 to 3 times. Finally, the dried dialysis membrane was soaked in ultrapure water for 20 minutes for later use. The frozen plasma was thawed in a water bath at 37° C. for about 20 minutes. pH value of the plasma was measured after thawing was complete, and was adjusted to 7.4 with 1% phosphoric acid solution or 0.1M sodium hydroxide solution. […] The pretreated dialysis membrane was assembled into the dialysis plate according to product instructions, and 100 μL of receiving solution (100 mM phosphate buffer solution plus 0.002% Tween 80) was added to one side of the permeable membrane in each dialysis well. 20 μL of each of the final solution of the test compound and the final solution of the control compound were taken in a 96-well sample plate, two duplicate samples were made, and T0 sample was obtained, which was stored in a −20° C. refrigerator. Another 100 μL of each of the above-mentioned final solutions were taken to the other side of the membrane in the dialysis device, two duplicate samples were made, and incubated at 37° C. with constant shaking for 6 hours. After 6 hours of incubation, 20 μL of each of the dialyzed receiving solution and the administered plasma were taken, two duplicate samples were made, and sample A and sample B were obtained. Corresponding blank plasma or receiving solution of corresponding volume were added to sample B and sample A, respectively, allowing the volume ratio of plasma to buffer in each sample well to be 1:1. 300 μL of sample-containing internal standard acetonitrile solution was added to all the sample wells. The mixture was mixed well, and centrifuged at 5,500×g for 10 minutes. 150 μL of corresponding ultrapure water was added to the corresponding sample wells of the 96-well sample plate. 150 μL of the supernatant was taken into the sample wells, and mixed well. Then, LC/MS/MS analysis was performed. The calculation formula of fu is: […]
# where: CR: peak area ratio measured in the receiving chamber well CD: peak area ratio measured in the supply chamber well.
# [2] = Liver microsome stability assay; settings: Rat liver microsomes; read-out: T1/2 (min) Rat
# [3] = Liver microsome stability assay; settings: Mouse liver microsomes; read-out: T1/2 (min) Mouse
# [4] = Liver microsome stability assay; settings: dog; Canine liver microsomes; read-out: T1/2 (min) Canine
# Caco-2 cells = test: Bidirectional permeability study in CACO-2 cells; settings: Caco-2 monolayer, 2.00 μM, 2 hours, pH 7.40
# Method: Caco-2 cells were inoculated onto polyethylene membrane (PET) in 96-well inserted plates at a rate of 1×10^5 cells/cm^2, and the medium was changed every 4 to 5 days until day 21 to 28, to form a fused cell monolayer. The transport buffer in the assay was HBSS and 10.0 mM HEPES, with a pH of 7.40±0.05. The test compounds were subjected to a bidirectional test at 2.00 μM in the presence and absence of GF120918 (10.0 μM). Digoxin was subjected to a bidirectional test at 10.0 μM in the presence and absence of GF120918 (10.0 μM), while Nadolol and Metoprolol were subjected to a test from direction A to direction B at 2.00 μM in the absence of GF120918 (10.0 μM). The above tests were performed in duplicate. The final concentration of DMSO was adjusted to be lower than 1%. The plate was incubated in a CO2 incubator at 37° C.±1° C. for 2 hours, and 5% CO2 was added under saturated humidity without shaking. All the samples, after being mixed with acetonitrile containing internal standard, were centrifuged at 3,200 g for 10 minutes. […] The concentrations of the test compounds and control compounds in the starting solution, the donor solution, and the acceptor solution were quantified by LC-MS/MS based on a peak area ratio of the analyte to the internal standard.
# After the transport assay, the integrity of the Caco-2 cell monolayer was determined using Lucifer Yellow Exclusion Assay.
# Chain of CYP2C8 (P10632 whole entry): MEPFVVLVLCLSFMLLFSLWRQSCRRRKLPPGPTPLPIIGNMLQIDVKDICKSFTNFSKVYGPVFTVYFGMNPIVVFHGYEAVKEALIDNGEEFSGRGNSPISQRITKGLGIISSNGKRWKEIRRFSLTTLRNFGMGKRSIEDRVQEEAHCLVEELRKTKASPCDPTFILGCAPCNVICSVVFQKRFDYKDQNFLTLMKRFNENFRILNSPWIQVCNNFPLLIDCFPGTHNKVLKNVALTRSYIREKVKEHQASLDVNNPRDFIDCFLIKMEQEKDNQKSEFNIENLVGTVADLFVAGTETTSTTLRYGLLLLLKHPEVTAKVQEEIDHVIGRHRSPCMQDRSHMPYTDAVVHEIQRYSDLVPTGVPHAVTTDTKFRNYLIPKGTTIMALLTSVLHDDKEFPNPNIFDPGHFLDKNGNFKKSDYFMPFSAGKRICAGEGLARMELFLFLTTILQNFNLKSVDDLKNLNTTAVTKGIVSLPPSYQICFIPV
smiles,measurement,setting,value
"CCCCOC(=O)NS(=O)(=O)c1sc(CC(C)C)cc1-c1ccc(Cn2ccnc2)cc1 [Control Compound I, reference compound]",inhibition at 10 µM,CYP2C8,97.5%
same,"fraction unbound at 6 h, 1 μM","[1]; dog, pH 7.4, Canine plasma, read-out: fu % Canine",0.0023
same,"fraction unbound at 6 h, 1 μM","[1]; pH 7.4, Human plasma, read-out: fu % Human",0.0006
same,"fraction unbound at 6 h, 1 μM","[1]; pH 7.4, Mouse plasma, read-out: fu % Mouse",0.0009
same,"fraction unbound at 6 h, 1 μM","[1]; pH 7.4, Rat plasma, read-out: fu % Rat",0.0005
same,half-life at 1 μM,[2],22.6 min
same,half-life at 1 μM,[3],49.1 min
same,half-life at 1 μM,[4],224 min
same,Papp mean value (10^−6 cm/s) A to B,Caco-2 cells,0.381 10^−6 cm/s
